Assay results as given in article PMC10824666 (Nature Cancer, 2023).
Where two headings read alike, the source gives them in different places. Each block holds one molecule with its values, some of them ahead of it.

Columns and labels:
Test in all cases: biochemical
Parameters in all cases: Eurofins DiscoverX kinase panel, competitive binding assay at 1 uM, percent of DMSO control
Conditions in all cases: competitive binding, percent of DMSO control
[1] = target: BTK (Homo sapiens, UniProt Q06187)
Outline: (§1)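 Competitive binding assay across a 96-kinase panel with KIF18A compounds at 1 µM; values given as percentage of control (POC), single experiment.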

[2] = target: FGFR1 (Homo sapiens, UniProt P11362)
Outline: as §1

[3] = target: c-KIT (Homo sapiens, UniProt P10721)
Outline: as §1

[4] = target: T1, PKC ε (Homo sapiens, UniProt Q02156)
T1 construct: gene PRKCE
T1 sequence (Q02156 1-737): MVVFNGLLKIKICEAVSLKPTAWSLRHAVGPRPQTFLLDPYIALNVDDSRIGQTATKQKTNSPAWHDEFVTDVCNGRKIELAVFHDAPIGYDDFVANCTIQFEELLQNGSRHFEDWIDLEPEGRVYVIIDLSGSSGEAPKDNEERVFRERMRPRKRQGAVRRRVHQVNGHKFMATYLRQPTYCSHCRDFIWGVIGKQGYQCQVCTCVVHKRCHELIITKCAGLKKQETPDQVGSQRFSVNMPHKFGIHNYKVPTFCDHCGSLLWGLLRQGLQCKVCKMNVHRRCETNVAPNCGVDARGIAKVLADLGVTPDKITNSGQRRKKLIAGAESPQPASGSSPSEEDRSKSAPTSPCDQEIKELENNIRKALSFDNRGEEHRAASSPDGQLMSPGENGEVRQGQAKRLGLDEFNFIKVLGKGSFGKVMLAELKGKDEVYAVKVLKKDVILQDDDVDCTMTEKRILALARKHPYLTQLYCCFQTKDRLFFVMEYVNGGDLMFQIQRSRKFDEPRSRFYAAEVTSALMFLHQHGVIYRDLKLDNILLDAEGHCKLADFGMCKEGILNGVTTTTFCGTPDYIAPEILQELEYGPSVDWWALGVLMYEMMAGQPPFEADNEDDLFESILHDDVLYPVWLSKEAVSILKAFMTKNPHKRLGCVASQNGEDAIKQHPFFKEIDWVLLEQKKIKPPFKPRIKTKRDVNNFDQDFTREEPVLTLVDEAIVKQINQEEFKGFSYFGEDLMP
Outline: as §1

[5] = target: EGFR (Homo sapiens, UniProt P00533)
Outline: as §1

[6] = read-out: Kinome Profiling performed by Eurofins DiscoverX / AM-0277, 1.0 µM / POC
[7] = read-out: Kinome Profiling performed by Eurofins DiscoverX / AM-1882, 1.0 µM / POC
[8] = read-out: Kinome Profiling performed by Eurofins DiscoverX / AM-5308, 1.0 µM / POC

Chain of EGFR (P00533 whole entry): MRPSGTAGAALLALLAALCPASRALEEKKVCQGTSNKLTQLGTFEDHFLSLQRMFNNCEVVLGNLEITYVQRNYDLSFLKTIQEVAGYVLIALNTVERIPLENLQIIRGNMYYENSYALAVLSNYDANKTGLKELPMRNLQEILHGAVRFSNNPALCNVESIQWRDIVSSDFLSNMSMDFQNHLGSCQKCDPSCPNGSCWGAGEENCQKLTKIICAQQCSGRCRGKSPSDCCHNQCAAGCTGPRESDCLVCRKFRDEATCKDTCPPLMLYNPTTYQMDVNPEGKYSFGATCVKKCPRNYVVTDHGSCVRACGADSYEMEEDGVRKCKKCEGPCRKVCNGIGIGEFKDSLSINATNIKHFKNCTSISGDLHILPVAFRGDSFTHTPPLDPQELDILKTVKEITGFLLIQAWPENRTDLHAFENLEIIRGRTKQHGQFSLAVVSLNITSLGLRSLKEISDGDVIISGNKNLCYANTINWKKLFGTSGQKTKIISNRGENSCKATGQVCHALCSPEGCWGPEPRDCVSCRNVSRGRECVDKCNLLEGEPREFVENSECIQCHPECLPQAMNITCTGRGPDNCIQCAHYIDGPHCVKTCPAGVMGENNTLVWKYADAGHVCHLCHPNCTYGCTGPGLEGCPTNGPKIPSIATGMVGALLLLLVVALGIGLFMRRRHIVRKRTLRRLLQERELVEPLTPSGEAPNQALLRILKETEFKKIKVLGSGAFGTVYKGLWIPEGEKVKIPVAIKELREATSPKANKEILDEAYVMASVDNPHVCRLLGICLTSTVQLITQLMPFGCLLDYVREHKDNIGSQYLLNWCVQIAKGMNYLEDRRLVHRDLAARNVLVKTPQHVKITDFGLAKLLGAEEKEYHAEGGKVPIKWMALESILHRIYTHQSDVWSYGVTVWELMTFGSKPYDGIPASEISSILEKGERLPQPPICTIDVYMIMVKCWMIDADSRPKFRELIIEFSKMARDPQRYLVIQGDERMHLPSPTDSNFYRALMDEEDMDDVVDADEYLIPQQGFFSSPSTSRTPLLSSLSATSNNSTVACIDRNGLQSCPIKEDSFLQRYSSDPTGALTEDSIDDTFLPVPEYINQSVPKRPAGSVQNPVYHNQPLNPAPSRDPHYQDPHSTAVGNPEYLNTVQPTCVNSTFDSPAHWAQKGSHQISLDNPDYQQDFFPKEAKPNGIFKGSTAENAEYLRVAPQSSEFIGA
Chain of BTK (Q06187 whole entry): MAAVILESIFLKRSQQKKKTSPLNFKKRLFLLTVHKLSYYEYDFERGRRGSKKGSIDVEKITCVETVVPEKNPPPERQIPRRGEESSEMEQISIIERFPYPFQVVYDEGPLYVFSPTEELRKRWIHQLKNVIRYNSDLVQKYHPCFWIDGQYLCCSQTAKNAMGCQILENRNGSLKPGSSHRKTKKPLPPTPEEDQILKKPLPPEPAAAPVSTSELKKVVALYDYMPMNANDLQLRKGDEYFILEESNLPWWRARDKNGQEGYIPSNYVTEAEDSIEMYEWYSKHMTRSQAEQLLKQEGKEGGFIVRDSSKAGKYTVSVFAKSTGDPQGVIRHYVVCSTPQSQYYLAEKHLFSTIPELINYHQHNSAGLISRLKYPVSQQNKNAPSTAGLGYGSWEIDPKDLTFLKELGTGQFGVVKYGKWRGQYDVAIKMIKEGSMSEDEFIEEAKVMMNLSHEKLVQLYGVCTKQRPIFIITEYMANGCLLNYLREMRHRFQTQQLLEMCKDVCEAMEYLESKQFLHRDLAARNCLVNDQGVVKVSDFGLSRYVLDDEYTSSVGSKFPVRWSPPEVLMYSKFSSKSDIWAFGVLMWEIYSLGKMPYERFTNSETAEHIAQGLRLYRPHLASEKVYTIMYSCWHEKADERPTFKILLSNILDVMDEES
Chain of c-KIT (P10721 whole entry): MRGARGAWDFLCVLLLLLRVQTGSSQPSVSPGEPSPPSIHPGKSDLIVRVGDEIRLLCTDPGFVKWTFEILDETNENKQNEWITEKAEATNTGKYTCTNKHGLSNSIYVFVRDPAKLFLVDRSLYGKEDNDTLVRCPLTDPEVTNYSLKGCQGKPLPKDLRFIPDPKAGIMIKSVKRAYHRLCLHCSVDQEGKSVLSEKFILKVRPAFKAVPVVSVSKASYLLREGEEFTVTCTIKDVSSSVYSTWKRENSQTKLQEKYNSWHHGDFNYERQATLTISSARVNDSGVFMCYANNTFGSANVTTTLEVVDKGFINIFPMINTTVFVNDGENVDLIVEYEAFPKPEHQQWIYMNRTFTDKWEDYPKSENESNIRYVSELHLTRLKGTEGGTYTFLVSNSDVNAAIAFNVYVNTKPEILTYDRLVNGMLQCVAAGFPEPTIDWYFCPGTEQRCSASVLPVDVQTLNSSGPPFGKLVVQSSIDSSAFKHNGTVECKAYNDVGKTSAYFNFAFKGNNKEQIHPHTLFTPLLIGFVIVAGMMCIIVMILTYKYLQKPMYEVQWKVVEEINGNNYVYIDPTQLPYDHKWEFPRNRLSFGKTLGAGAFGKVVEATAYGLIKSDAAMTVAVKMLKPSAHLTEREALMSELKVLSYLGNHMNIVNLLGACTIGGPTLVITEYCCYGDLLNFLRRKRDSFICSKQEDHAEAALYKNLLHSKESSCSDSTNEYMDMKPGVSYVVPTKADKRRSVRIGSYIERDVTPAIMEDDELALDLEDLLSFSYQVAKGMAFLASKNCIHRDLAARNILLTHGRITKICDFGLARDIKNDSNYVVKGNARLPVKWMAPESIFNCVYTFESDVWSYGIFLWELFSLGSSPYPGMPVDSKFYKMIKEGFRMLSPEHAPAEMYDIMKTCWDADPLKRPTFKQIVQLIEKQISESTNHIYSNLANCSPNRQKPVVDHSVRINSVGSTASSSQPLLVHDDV
Chain of FGFR1 (P11362 whole entry): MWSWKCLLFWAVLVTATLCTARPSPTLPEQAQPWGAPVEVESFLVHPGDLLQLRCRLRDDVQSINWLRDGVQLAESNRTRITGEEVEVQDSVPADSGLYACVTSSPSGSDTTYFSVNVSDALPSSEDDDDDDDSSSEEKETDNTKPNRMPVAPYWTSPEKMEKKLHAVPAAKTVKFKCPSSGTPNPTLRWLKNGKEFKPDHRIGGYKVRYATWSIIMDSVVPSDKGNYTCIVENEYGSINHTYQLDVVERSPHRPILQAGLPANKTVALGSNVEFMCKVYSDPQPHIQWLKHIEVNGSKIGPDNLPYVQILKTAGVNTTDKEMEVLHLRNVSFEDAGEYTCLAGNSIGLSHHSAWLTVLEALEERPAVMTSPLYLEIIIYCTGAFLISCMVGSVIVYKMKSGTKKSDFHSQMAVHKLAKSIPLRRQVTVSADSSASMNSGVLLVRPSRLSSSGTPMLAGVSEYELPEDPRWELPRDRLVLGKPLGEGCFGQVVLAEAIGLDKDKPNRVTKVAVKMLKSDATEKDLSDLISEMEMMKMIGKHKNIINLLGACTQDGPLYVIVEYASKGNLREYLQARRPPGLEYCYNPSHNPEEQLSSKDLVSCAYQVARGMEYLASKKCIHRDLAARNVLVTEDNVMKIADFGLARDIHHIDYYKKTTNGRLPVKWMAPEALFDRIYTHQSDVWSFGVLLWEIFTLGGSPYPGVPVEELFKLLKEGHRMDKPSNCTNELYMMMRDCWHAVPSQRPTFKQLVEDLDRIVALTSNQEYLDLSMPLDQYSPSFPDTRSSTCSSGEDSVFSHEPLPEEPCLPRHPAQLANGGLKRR

remaining activity at 1 µM [1, 6]: 100%
remaining activity at 1 µM [2, 6]: 94%
remaining activity at 1 µM [3, 6]: 92%
remaining activity at 1 µM [4, 6]: 100%
remaining activity at 1 µM [5, 6]: 93%
SMILES: CC(C)(CO)Nc1ccc(C(=O)Nc2cccc(S(=O)(=O)C3CCCC3)c2)c(N2CCC3(CC2)CC3)n1 [AM-0277]

remaining activity at 1 µM [1, 7]: 100%
remaining activity at 1 µM [2, 7]: 98%
remaining activity at 1 µM [3, 7]: 100%
remaining activity at 1 µM [4, 7]: 93%
remaining activity at 1 µM [5, 7]: 100%
SMILES: CC(C)(C)NS(=O)(=O)c1cccc(NC(=O)c2ccc(S(=O)(=O)NC(C)(C)C)cc2N2CCC3(CC2)CC3)c1 [AM-1882]

remaining activity at 1 µM [1, 8]: 98.5%
remaining activity at 1 µM [2, 8]: 94.5%
remaining activity at 1 µM [3, 8]: 100%
remaining activity at 1 µM [4, 8]: 97.5%
remaining activity at 1 µM [5, 8]: 83%
SMILES: C[C@@H]1CN(c2cccc(NC(=O)c3ccc(NS(=O)(=O)CCO)cc3N3CCC4(CC3)CC4)n2)CCO1 [AM-5308]
